Source: a compilation of properties of binary mixtures (doi:10.1021/jp3012602)

Assay: xn = mol fraction of the nth substance listed
Settings: 101 kPa

CCC[N+]1(C)CCCC1.O=S(=O)([N-]S(=O)(=O)C(F)(F)F)C(F)(F)F + CCCCCCCCCCCCCC[P+](CCCCCC)(CCCCCC)CCCCCC.O=S(=O)([N-]S(=O)(=O)C(F)(F)F)C(F)(F)F
Settings	electrical conductivity, 293.15 K [S/m]	electrical conductivity, 313.15 K [S/m]	electrical conductivity, 333.15 K [S/m]	electrical conductivity, 353.15 K [S/m]	viscosity, 293.15 K [mPa·s]	viscosity, 313.15 K [mPa·s]	viscosity, 333.15 K [mPa·s]	viscosity, 353.15 K [mPa·s]
x2 = 0	0.32	0.678	1.18	1.76	–	34.5	18.8	11.6
x2 = 0.5	0.0216	0.0565	0.12	0.223	322	117	51.8	26.7
x2 = 0.75	0.0113	–	0.0688	0.146	368	–	61.9	29.2

CCC[N+]1(C)CCCC1.O=S(=O)([N-]S(=O)(=O)C(F)(F)F)C(F)(F)F + CCCCCC[N+]1(C)CCCC1.O=S(=O)([N-]S(=O)(=O)C(F)(F)F)C(F)(F)F
x2 = 0
Settings	electrical conductivity [S/m]	viscosity [mPa·s]
293.15 K	0.32	–
313.15 K	0.678	34.4
333.15 K	1.18	18.8

CCC[N+]1(C)CCCC1.O=S(=O)([N-]S(=O)(=O)C(F)(F)F)C(F)(F)F + CCCC[N+]1(C)CCCC1.O=S(=O)([N-]S(=O)(=O)C(F)(F)F)C(F)(F)F
Settings	electrical conductivity, 293.15 K [S/m]	electrical conductivity, 313.15 K [S/m]	electrical conductivity, 333.15 K [S/m]	electrical conductivity, 353.15 K [S/m]	viscosity, 293.15 K [mPa·s]	viscosity, 313.15 K [mPa·s]	viscosity, 333.15 K [mPa·s]	viscosity, 353.15 K [mPa·s]
x2 = 0	0.32	0.678	–	1.76	–	34.4	–	11.6
x2 = 0.25	–	0.509	0.893	1.39	–	35.9	19.2	11.8
x2 = 0.5	0.298	0.61	1.03	–	87	37.9	20	–
x2 = 0.75	0.261	0.569	–	1.57	92	39.5	–	12.5

CCC[N+]1(C)CCCC1.O=S(=O)([N-]S(=O)(=O)C(F)(F)F)C(F)(F)F + CCC[N+]1(C)CCCC1.N#C[N-]C#N
x2 = 0
Settings	electrical conductivity [S/m]	viscosity [mPa·s]
293.15 K	0.32	–
333.15 K	1.18	18.8

CCCCCCCCCCCCCC[P+](CCCCCC)(CCCCCC)CCCCCC.O=S(=O)([N-]S(=O)(=O)C(F)(F)F)C(F)(F)F + CCC[N+]1(C)CCCC1.O=S(=O)([N-]S(=O)(=O)C(F)(F)F)C(F)(F)F
x1 = 1
Settings	electrical conductivity [S/m]	viscosity [mPa·s]
293.15 K	0.0072	–
313.15 K	0.0216	150
333.15 K	0.0473	63
353.15 K	0.0913	31.1

CCCCCC[N+]1(C)CCCC1.O=S(=O)([N-]S(=O)(=O)C(F)(F)F)C(F)(F)F + CCC[N+]1(C)CCCC1.O=S(=O)([N-]S(=O)(=O)C(F)(F)F)C(F)(F)F
Settings	electrical conductivity, 293.15 K [S/m]	electrical conductivity, 313.15 K [S/m]	electrical conductivity, 333.15 K [S/m]	electrical conductivity, 353.15 K [S/m]	viscosity, 293.15 K [mPa·s]	viscosity, 313.15 K [mPa·s]	viscosity, 333.15 K [mPa·s]	viscosity, 353.15 K [mPa·s]
x1 = 0.25	0.268	–	1.02	1.54	89	–	20.6	12.6
x1 = 0.5	0.185	0.417	0.766	–	102	42.9	22.2	–
x1 = 0.75	0.111	0.251	0.463	0.724	116	47.3	23.8	13.9
x1 = 1	0.118	0.272	0.525	0.86	–	52.7	25.9	14.9

CCCC[N+]1(C)CCCC1.O=S(=O)([N-]S(=O)(=O)C(F)(F)F)C(F)(F)F + CCC[N+]1(C)CCCC1.O=S(=O)([N-]S(=O)(=O)C(F)(F)F)C(F)(F)F
x1 = 1
Settings	electrical conductivity [S/m]	viscosity [mPa·s]
293.15 K	0.222	–
313.15 K	0.471	42
333.15 K	0.827	21.7
353.15 K	1.23	12.9

CCC[N+]1(C)CCCC1.N#C[N-]C#N + CCC[N+]1(C)CCCC1.O=S(=O)([N-]S(=O)(=O)C(F)(F)F)C(F)(F)F
Settings	electrical conductivity, 293.15 K [S/m]	electrical conductivity, 313.15 K [S/m]	electrical conductivity, 333.15 K [S/m]	viscosity, 293.15 K [mPa·s]	viscosity, 313.15 K [mPa·s]	viscosity, 333.15 K [mPa·s]	viscosity, 353.15 K [mPa·s]
x1 = 0.25	0.44	0.842	–	63.1	29.7	–	10.4
x1 = 0.5	0.733	1.34	2.16	51	25.3	14.8	9.58
x1 = 0.75	0.982	1.75	–	44.9	21.6	–	8.66
x1 = 1	1.57	2.67	4.44	–	18.6	11.7	7.95

CC[n+]1ccn(C)c1.O=S(=O)([N-]S(=O)(=O)C(F)(F)F)C(F)(F)F + CCC[N+]1(C)CCCC1.O=S(=O)([N-]S(=O)(=O)C(F)(F)F)C(F)(F)F
x1 = 1
Settings	electrical conductivity [S/m]	viscosity [mPa·s]
293.15 K	0.752	–
313.15 K	1.35	19.9
333.15 K	2.1	12
353.15 K	3.05	7.97

CCC[N+]1(C)CCCC1.O=S(=O)([N-]S(=O)(=O)C(F)(F)F)C(F)(F)F + CC[n+]1ccn(C)c1.O=S(=O)([N-]S(=O)(=O)C(F)(F)F)C(F)(F)F
Settings	electrical conductivity, 293.15 K [S/m]	electrical conductivity, 313.15 K [S/m]	electrical conductivity, 333.15 K [S/m]	electrical conductivity, 353.15 K [S/m]	viscosity, 293.15 K [mPa·s]	viscosity, 313.15 K [mPa·s]	viscosity, 333.15 K [mPa·s]	viscosity, 353.15 K [mPa·s]
x2 = 0	0.32	0.678	–	–	–	34.4	–	–
x2 = 0.25	0.408	0.801	1.34	2	63.6	29.4	16.6	10.5
x2 = 0.5	–	0.985	1.62	2.37	–	25.8	14.9	9.57
x2 = 0.75	0.633	1.16	1.85	2.66	45	22.6	13.3	8.77
